Experimental data as given in ChEMBL document CHEMBL1201862, “PubChem BioAssay data set” (2004).
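Assay format: 96-well plates, 48-hour exposure. GI50 marks 50% less growth.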 Calls of active or inactive are those of the source. No stated cut-off is given here; in the data, active = GI50 up to about 1.1 µM and inactive = higher.

Experiments:
Assay in all cases: inhibition of tumour cell growth, NCI panel, 48 h
[1] = tested on: HCC 2998
[2] = tested on: SNB-19
[3] = tested on: OVCAR-3
[4] = tested on: U-251
[5] = tested on: MDA-MB-435
[6] = tested on: HT-29
[7] = tested on: MDA-MB-231
[8] = tested on: NCI-H460
[9] = tested on: NCI/ADR-RES
[10] = tested on: DU-145
[11] = tested on: KM12
[12] = tested on: SK-MEL-28
[13] = tested on: SK-OV-3
[14] = tested on: SK-MEL-2
[15] = tested on: SF-295
[16] = tested on: NCI-H23
[17] = tested on: RXF 393
[18] = tested on: OVCAR-5
[19] = tested on: NCI-H522
[20] = tested on: Hs-578T
[21] = tested on: A549
[22] = tested on: COLO 205
[23] = tested on: ACHN
[24] = tested on: HCT-15
[25] = tested on: UO-31
[26] = tested on: MCF7
[27] = tested on: SW-620
[28] = tested on: CAKI-1
[29] = tested on: PC-3
[30] = tested on: HOP-62
[31] = tested on: LOX IMVI
[32] = tested on: SF-539
[33] = tested on: HOP-92
[34] = tested on: SK-MEL-5
[35] = tested on: UACC-62
[36] = tested on: 786-0
[37] = tested on: IGROV-1
[38] = tested on: SF-268
[39] = tested on: OVCAR-8
[40] = tested on: MOLT-4
[41] = tested on: BT-549
[42] = tested on: SNB-75
[43] = tested on: UACC-257
[44] = tested on: OVCAR-4
[45] = tested on: SN12C
[46] = tested on: M14
[47] = tested on: MDA-N
[48] = tested on: HCT-116
[49] = tested on: EKVX
[50] = tested on: TK-10
[51] = tested on: CCRF-CEM
[52] = tested on: NCI-H226
[53] = tested on: K562
[54] = tested on: T47D
[55] = tested on: HL-60
[56] = tested on: SR
[57] = tested on: RPMI-8226
[58] = tested on: Malme-3M
[59] = tested on: A498

O=C1Nc2ccccc2/C1=N/Nc1nc(-c2ccc(Br)cc2)cs1
GI50 [1]: 31.8 µM (inactive)
GI50 [2]: 18.5 µM (inactive)
GI50 [3]: 20.7 µM (inactive)
GI50 [4]: 14.3 µM (inactive)
GI50 [5]: 36.5 µM (inactive)
GI50 [6]: 17.7 µM (inactive)
GI50 [7]: 17.5 µM (inactive)
GI50 [8]: 21.4 µM (inactive)
GI50 [9]: 18 µM (inactive)
GI50 [10]: 23.3 µM (inactive)
GI50 [11]: 30.3 µM (inactive)
GI50 [12]: 12.6 µM (inactive)
GI50 [13]: 23.7 µM (inactive)
GI50 [14]: 46.1 µM (inactive)
GI50 [15]: 24.1 µM (inactive)
GI50 [16]: 27.2 µM (inactive)
GI50 [17]: 43.9 µM (inactive)
GI50 [18]: 23.8 µM (inactive)
GI50 [19]: 25.9 µM (inactive)
GI50 [20]: 17.9 µM (inactive)
GI50 [21]: 25.2 µM (inactive)
GI50 [22]: 24.9 µM (inactive)
GI50 [23]: 17.5 µM (inactive)
GI50 [24]: 19.4 µM
GI50 [25]: 10.3 µM (inactive)
GI50 [26]: 37.3 µM (inactive)
GI50 [27]: 28.2 µM (inactive)
GI50 [28]: 18.6 µM (inactive)
GI50 [29]: 28.6 µM (inactive)
GI50 [30]: 14.6 µM (inactive)
GI50 [31]: 17.4 µM (inactive)
GI50 [32]: 17.5 µM (inactive)
GI50 [33]: 11.4 µM (inactive)
GI50 [34]: 15.6 µM (inactive)
GI50 [35]: 20.6 µM (inactive)
GI50 [36]: 17.3 µM (inactive)
GI50 [37]: 0.678 µM (active)
GI50 [38]: 20 µM (inactive)
GI50 [39]: 19.5 µM (inactive)
GI50 [40]: 74.8 µM (inactive)
GI50 [41]: 20 µM (inactive)
GI50 [42]: 19.7 µM (inactive)
GI50 [43]: 22.7 µM (inactive)
GI50 [44]: 18.5 µM (inactive)
GI50 [45]: 27.1 µM (inactive)
GI50 [46]: 21.8 µM (inactive)
GI50 [47]: 41.5 µM (inactive)
GI50 [48]: 26.7 µM (inactive)
GI50 [49]: 7.85 µM (inactive)
GI50 [50]: 28.6 µM (inactive)
GI50 [51]: 15.7 µM (inactive)

CSc1ccc(/C=C/c2ccnc3ccccc23)cc1
GI50 [1]: 13.9 µM (inactive)
GI50 [52]: 14.5 µM (inactive)
GI50 [2]: 17.7 µM (inactive)
GI50 [3]: 13.2 µM (inactive)
GI50 [4]: 12.8 µM (inactive)
GI50 [5]: 3.69 µM (inactive)
GI50 [6]: 14 µM (inactive)
GI50 [7]: 17 µM (inactive)
GI50 [8]: 12.2 µM (inactive)
GI50 [9]: 9.73 µM (inactive)
GI50 [10]: 13.9 µM (inactive)
GI50 [11]: 20.3 µM (inactive)
GI50 [12]: 17.4 µM (inactive)
GI50 [53]: 5.47 µM (inactive)
GI50 [13]: 16 µM (inactive)
GI50 [14]: 16.1 µM (inactive)
GI50 [15]: 14.4 µM (inactive)
GI50 [16]: 11.8 µM (inactive)
GI50 [17]: 18.5 µM (inactive)
GI50 [18]: 17.7 µM (inactive)
GI50 [19]: 12.5 µM (inactive)
GI50 [54]: 5.58 µM (inactive)
GI50 [20]: 20.9 µM (inactive)
GI50 [21]: 12.5 µM (inactive)
GI50 [22]: 11.3 µM (inactive)
GI50 [23]: 14.1 µM (inactive)
GI50 [24]: 11.5 µM
GI50 [55]: 3.97 µM (inactive)
GI50 [25]: 11.8 µM (inactive)
GI50 [26]: 13.6 µM (inactive)
GI50 [27]: 14 µM (inactive)
GI50 [29]: 6.67 µM (inactive)
GI50 [56]: 5.64 µM (inactive)
GI50 [30]: 20.3 µM (inactive)
GI50 [57]: 8.43 µM (inactive)
GI50 [31]: 12.7 µM (inactive)
GI50 [32]: 17.6 µM (inactive)
GI50 [33]: 16.4 µM (inactive)
GI50 [34]: 6.08 µM (inactive)
GI50 [36]: 14.8 µM (inactive)
GI50 [37]: 16.4 µM (inactive)
GI50 [38]: 26 µM (inactive)
GI50 [39]: 15.5 µM (inactive)
GI50 [40]: 12.2 µM (inactive)
GI50 [42]: 20.4 µM (inactive)
GI50 [58]: 17.6 µM (inactive)
GI50 [43]: 18.4 µM (inactive)
GI50 [45]: 15.5 µM (inactive)
GI50 [46]: 9.04 µM (inactive)
GI50 [47]: 13.7 µM (inactive)
GI50 [59]: 15.5 µM (inactive)
GI50 [48]: 10.5 µM (inactive)
GI50 [49]: 10.4 µM (inactive)
GI50 [50]: 13.9 µM (inactive)
GI50 [51]: 17.9 µM (inactive)

CC1=NN(c2ccccc2)C(=O)/C1=C/c1ccc(O)cc1
GI50 [1]: > 100 µM (inactive)
GI50 [52]: > 100 µM (inactive)
GI50 [2]: > 100 µM (inactive)
GI50 [3]: > 100 µM (inactive)
GI50 [4]: > 100 µM (inactive)
GI50 [5]: > 100 µM (inactive)
GI50 [6]: > 100 µM (inactive)
GI50 [7]: > 100 µM (inactive)
GI50 [8]: > 100 µM (inactive)
GI50 [9]: > 100 µM (inactive)
GI50 [10]: > 100 µM (inactive)
GI50 [11]: > 100 µM (inactive)
GI50 [12]: > 100 µM (inactive)
GI50 [53]: > 100 µM (inactive)
GI50 [13]: > 100 µM (inactive)
GI50 [14]: > 100 µM (inactive)
GI50 [15]: > 100 µM (inactive)
GI50 [16]: > 100 µM (inactive)
GI50 [17]: > 100 µM (inactive)
GI50 [18]: > 100 µM (inactive)
GI50 [54]: > 100 µM (inactive)
GI50 [20]: > 100 µM (inactive)
GI50 [21]: > 100 µM (inactive)
GI50 [22]: > 100 µM (inactive)
GI50 [23]: > 100 µM (inactive)
GI50 [24]: > 100 µM
GI50 [55]: > 100 µM (inactive)
GI50 [26]: > 100 µM (inactive)
GI50 [27]: > 100 µM (inactive)
GI50 [28]: > 100 µM (inactive)
GI50 [29]: > 100 µM (inactive)
GI50 [56]: 84.3 µM (inactive)
GI50 [57]: 61.8 µM (inactive)
GI50 [31]: > 100 µM (inactive)
GI50 [32]: > 100 µM (inactive)
GI50 [33]: > 100 µM (inactive)
GI50 [34]: > 100 µM (inactive)
GI50 [35]: > 100 µM (inactive)
GI50 [36]: > 100 µM (inactive)
GI50 [37]: > 100 µM (inactive)
GI50 [38]: > 100 µM (inactive)
GI50 [39]: > 100 µM (inactive)
GI50 [40]: > 100 µM (inactive)
GI50 [58]: > 100 µM (inactive)
GI50 [43]: > 100 µM (inactive)
GI50 [44]: > 100 µM (inactive)
GI50 [45]: > 100 µM (inactive)
GI50 [46]: > 100 µM (inactive)
GI50 [47]: > 100 µM (inactive)
GI50 [59]: > 100 µM (inactive)
GI50 [48]: > 100 µM (inactive)
GI50 [49]: > 100 µM (inactive)
GI50 [50]: > 100 µM (inactive)
GI50 [51]: > 100 µM (inactive)
